We go through one substance from patent publication US12629348B2, “Method and composition for treating osteoarthritis” (Vireo Systems, Inc., priority 2013, dated 2026).

Entries after “also recorded” stand apart in the source; their conditions may differ. A value given as a limit tells only on which side of the number the result lay.

Test [1] deals with PGE2. Description: Plasma PGE2 (PGE2 metabolite competitive EIA) in OA canines. In kind it is in vivo, canine. To be noted: 36 mg/kg/day oral. The procedure:
The double-blind study was performed on a total of 30 adult canines of various breeds in five different private practice clinics. Owner consent was obtained prior to participation in the study. Each clinic was responsible for enrolling 6 canines into the study. Inclusion criteria for the study consisted of clinical assessment and radiograph confirmation of OA in at least one joint and a score of 22 or greater on the Helsinki chronic pain index (“HCPI”). Use of NSAIDs or other dietary supplements for OA were allowed, provided the current treatment regimens had not been altered for a period of at least three months. […]
In addition to the standard blood chemistry profile, blood samples taken before and at the conclusion of the two-week trial period were analyzed for PGE2 and SAA. […] Both plasma and serum samples were centrifuged at 2000×g for 10 minutes and the plasma and serum supernatants removed and frozen at […] until analyzed for PGE2 and SAA using enzyme-linked immunosorbent assays (“HA”). […] Plasma samples were analyzed for PGE2 using the bicycle PGE2 competitive EIA kit purchased from Cayman Chemical (Ann Arbor, MI). The assay converts PGE2 metabolites into a stable derivative that is measured using EIA. Samples (100 μl) were analyzed in triplicate and PGE2 concentrations determined by use of standard curve. […]

Test [2] relates to brain endothelial cells. Briefly: Release of PGE2 from brain endothelial cells exposed to bacterial endotoxin. The format is cell-based. To be noted: FIG. 1. The source says:
The brain endothelial cells were first exposed to bacterial endotoxin.

For test [3], the system named is TLR-3. Description: TLR expression in exposed cells (real time PCR or immunofluorescent staining). The format is cell-based. The source says: (§1) In one embodiment, the anti-inflammatory agent may include ethyl (α-guanido-methyl) ethanoate (“Alpha-GEE”). […] Toll receptors act as a key part of our body's recognition mechanism and appear to be a major factor in the onset and/or progression of various medical indications including those that involve inflammation and pain. In particular, real time PCR or immunofluorescent staining of exposed cells was used to assess expression of toll-like receptor-2 (TLR-2), TLR-3, TLR-4, and TLR-7. […] Without being bound by any particular theory, the mechanism by which TLR expression seems to be altered involves decreased pro-inflammatory mediator production in the wake of exposure to Alpha-GEE.
For orientation: Real-time PCR tracks product formation cycle by cycle.

In test [4] the test system is TLR-4. The description is as above. In kind it is cell-based.
Source text: as §1

The test system of test [5] is TLR-7. The description is as above. The format is cell-based.
Source text: as §1

Test [6] relates to toll-like receptor-2 (TLR-2). The test is described as above. The format is cell-based.
Source text: as §1

Test [7] addresses cyclooxygenase-1 (COX-1) (Homo sapiens, UniProt P23219). Briefly: Inhibition of cyclooxygenase-1 activity.
The target of test [8] is T1, cyclooxygenase-2 (COX-2) (Homo sapiens, UniProt P35354).
T1 sequence (P35354 18-604): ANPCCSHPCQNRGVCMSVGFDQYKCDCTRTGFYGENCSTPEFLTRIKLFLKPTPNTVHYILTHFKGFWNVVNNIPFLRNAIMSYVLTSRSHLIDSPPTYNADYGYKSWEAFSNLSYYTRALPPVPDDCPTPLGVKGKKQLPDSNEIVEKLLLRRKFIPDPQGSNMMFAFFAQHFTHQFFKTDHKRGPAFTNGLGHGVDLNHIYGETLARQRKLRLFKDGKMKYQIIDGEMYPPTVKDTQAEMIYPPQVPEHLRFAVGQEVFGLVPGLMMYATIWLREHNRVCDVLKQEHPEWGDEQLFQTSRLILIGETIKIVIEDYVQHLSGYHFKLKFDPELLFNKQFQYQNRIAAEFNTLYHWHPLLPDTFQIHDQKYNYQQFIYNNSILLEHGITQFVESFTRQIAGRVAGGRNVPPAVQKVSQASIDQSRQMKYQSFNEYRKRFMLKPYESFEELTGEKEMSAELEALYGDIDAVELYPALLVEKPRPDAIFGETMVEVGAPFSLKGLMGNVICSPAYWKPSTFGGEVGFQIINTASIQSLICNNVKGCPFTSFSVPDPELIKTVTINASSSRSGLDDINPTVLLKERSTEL
Description: Inhibition of cyclooxygenase-2 activity.

Setting [9] is: 1 μM (first of three values printed for '1 μM and 100 μM').
Where [10] appears, read: 100 μM (third of three values printed for '1 μM and 100 μM').
[11] abbreviates: concentration not printed (second of three values printed for '1 μM and 100 μM').

Sequence of cyclooxygenase-1 (COX-1) (P23219 24-599, species assumed): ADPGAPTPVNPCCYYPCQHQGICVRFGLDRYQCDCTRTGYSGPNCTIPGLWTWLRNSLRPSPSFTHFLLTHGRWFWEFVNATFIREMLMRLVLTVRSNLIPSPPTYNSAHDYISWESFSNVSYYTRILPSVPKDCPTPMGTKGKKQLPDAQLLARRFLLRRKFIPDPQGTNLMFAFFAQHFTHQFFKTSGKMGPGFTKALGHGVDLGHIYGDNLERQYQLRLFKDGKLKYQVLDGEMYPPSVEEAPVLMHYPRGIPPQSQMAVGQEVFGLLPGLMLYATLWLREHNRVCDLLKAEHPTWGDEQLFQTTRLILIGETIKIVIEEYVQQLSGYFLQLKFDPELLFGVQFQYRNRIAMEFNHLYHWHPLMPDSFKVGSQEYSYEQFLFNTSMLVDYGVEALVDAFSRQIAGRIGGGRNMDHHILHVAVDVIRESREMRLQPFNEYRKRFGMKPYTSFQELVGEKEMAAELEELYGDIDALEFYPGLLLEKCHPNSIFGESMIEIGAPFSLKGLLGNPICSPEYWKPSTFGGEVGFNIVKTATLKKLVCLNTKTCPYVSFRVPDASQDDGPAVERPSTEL

“ethyl (α-guanido-methyl) ethanoate [Alpha-GEE]”: the “PGE2 plasma concentration, post-trial” value in test [1] (mean ± SD after two weeks, pre-trial 268 ± 11) amounted to 264 ± 10 pg/mL. The “difference between pre-trial and post-trial plasma levels of PGE2” value in test [1] (two-week trial, 36 mg/kg/day) is “No significant differences; also recorded: no difference”. For the same substance, the “reduction in the release of PGE2 from brain endothelial cells” value in test [2] (concentration of about 20 μM or more) is given as at least 50%; in test [2] (concentration of about 1000 μM or more), “greater than 50%”. In test [3], the “expression of TLR-3 in cells” value is reported as “increases expression”. Moreover, the “expression of TLR-4 in cells” value in test [4] is on record as “increases expression”. For the same substance, the “expression of TLR-7 in cells” value in test [5] is given as “increases expression”. In test [6], the “expression of TLR-2 in cells” value was “increases expression”. The “inhibition of COX-1 activity” value in test [7] (0.1 μM) is given as “about 20%”; in test [7] (setting [9]) it was “about 20%”; in test [7] (setting [10]), “about 15%”; in test [7] (setting [11]), “about 15%”. Also, the “concentration dependency of inhibition of COX-1” value in test [7] (0.1-100 μM, FIG. 2) was “did not show a concentration dependency”. Also, the “inhibition of COX-2 activity” value in test [8] (0.1 μM) is on record as “about 10%”; in test [8] (setting [9]), “about 15%”; in test [8] (setting [10]) it was “about 15%”; in test [8] (setting [11]), “about 18%”. For the same substance, in test [8] (0.1-100 μM, FIG. 2), the “concentration dependency of inhibition of COX-2” value was “did not show a concentration dependency”.
